US11384075B2, “Quinolinone compounds” (Janssen Pharmaceutica NV, priority 2017, dated 2022)
Read-outs that look alike come from different tables or passages of the source.

Experiments:
[1] = system: NIH/3T3 cells transfected with the same control vector; test: NIH/3T3 mock cell proliferation assay (counter assay, general toxicity); type: cell-based; details: 72-hr incubation, CellTiter Glo, starting with 30 μM, counter assay for general toxicity, read-out: NIH/3T3 MOCK CTG (IC50)
In short: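 Control-vector NIH/3T3 cells, 30,000/well in DMEM with 10% FBS, exposed 72 h at 37 °C to compound (9 points, 3-fold from 30 μM, 0.3% DMSO). CellTiter-Glo luminescence normalized to survival %; IC50, pIC50 and Hill slope from concentration-response fit.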

[2] = biological target: T1, NIH/3T3 cells overexpressing FGFR3 V555M-TACC3 fusion protein (Homo sapiens, UniProt P22607, V555M, cells depend on it); test: NIH/3T3 FGFR3 V555M-TACC3 cell proliferation assay; type: cell-based; details: 72-hr incubation, CellTiter Glo, starting with 10 μM; read-out: NIH/3T3 FGFR3 V555M-TACC3 CTG (IC50)
T1 construct: NIH/3T3 FGFR3 V555M-TACC3 CTG (IC50); other: 72-hr incubation, CellTiter Glo, starting with 10 μM; fused on or other part: Q9Y6A5 (Transforming acidic coiled-coil-containing protein 3)
T1 sequence (P22607 whole entry V555M, the tested form may be a part): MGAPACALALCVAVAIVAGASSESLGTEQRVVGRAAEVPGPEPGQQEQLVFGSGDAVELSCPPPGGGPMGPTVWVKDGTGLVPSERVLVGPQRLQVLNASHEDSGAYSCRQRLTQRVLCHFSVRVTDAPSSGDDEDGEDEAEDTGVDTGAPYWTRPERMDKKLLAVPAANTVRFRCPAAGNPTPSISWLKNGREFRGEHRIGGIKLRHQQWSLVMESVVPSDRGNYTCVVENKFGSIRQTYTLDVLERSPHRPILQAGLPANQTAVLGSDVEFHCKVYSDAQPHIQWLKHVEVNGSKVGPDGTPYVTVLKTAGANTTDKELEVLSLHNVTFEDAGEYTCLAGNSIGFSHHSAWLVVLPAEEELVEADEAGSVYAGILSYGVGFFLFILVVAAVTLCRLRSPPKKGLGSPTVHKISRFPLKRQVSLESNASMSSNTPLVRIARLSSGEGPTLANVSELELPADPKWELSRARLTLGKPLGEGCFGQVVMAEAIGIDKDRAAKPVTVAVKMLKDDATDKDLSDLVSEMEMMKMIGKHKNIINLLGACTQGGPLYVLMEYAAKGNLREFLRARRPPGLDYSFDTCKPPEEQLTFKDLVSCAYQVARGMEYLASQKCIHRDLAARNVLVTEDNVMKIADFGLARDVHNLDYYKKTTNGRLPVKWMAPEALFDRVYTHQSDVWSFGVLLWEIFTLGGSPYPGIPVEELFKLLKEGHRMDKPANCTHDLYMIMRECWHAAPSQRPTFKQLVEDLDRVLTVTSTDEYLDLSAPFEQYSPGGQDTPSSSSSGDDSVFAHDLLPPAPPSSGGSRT
In short: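 NIH/3T3 cells overexpressing FGFR3 V555M-TACC3 fusion, 30,000/well in DMEM/10% FBS, treated for 72 h at 37 °C with 9 doses (4× dilutions from 10 μM top, 0.1% DMSO). CellTiter-Glo luminescence normalised to % survival; IC50, pIC50 and Hill slope from concentration-response fits.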

[3] = biological target: T2, human FGFR3 V555L enzyme (cytoplasmic domain carrying V555L mutation) (Homo sapiens, UniProt P22607, V555L); test: FGFR3 V555L mobility shift assay (enzymatic assay); type: biochemical; details: 40 μM ATP, 50 minutes at 30° C., Caliper EZ reader II
T2 construct: human FGFR3 V555L enzyme (cytoplasmic domain carrying V555L mutation, from Carna Biosciences); purchased Carna Biosciences
T2 sequence (P22607 397-806 V555L limits assumed): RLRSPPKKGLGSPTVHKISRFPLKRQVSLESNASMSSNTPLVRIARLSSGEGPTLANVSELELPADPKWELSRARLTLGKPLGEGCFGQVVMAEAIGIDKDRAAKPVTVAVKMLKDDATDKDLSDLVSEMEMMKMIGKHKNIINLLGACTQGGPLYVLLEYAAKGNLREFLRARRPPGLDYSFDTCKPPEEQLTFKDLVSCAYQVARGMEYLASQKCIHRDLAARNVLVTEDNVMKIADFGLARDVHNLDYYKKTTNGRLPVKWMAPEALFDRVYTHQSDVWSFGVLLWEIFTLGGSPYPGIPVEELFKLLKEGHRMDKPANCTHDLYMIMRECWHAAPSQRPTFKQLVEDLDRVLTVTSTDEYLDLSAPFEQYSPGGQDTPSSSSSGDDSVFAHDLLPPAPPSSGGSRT
Method: FGFR3 V555L Mobility Shift Assay (Enzymatic Assay)
In a final reaction volume of 25 μL, 0.04 ng/μL human FGFR3 V555L enzyme (cytoplasmic domain carrying V555L mutation, from Carna Biosciences) was incubated with 40 μM ATP, 1 μM FL-peptide 30 substrate and 250 nL of testing compound (1% DMSO final) in assay buffer (100 mM HEPES pH 7.4, 10 mM MgCl2, 0.003% Brij35, 1 mM DTT). After incubation for 50 minutes at 30° C. the reaction was stopped with 10 μL of 0.5M EDTA pH 8.0, and then 25 μL of reaction mixture was transferred to reading plate and measured on Caliper EZ reader II. The substrate-product conversion rate was used as raw data for normalization and concentration-response curve (10 dose points with 4× serial dilution, starting with 10 μM) was plotted using Prism to calculate IC50 (M), pIC50 (−log IC50) and HillSlope value.

[4] = biological target: T3, human FGFR3 V555M enzyme (cytoplasmic domain carrying V555M mutation) (Homo sapiens, UniProt P22607, V555M); test: FGFR3 V555M mobility shift assay (enzymatic assay); type: biochemical; details: 30 μM ATP, 45 minutes at 30° C., Caliper EZ reader II
T3 construct: human FGFR3 V555M enzyme (cytoplasmic domain carrying V555M mutation, from Carna Biosciences); purchased Carna Biosciences
T3 sequence (P22607 397-806 V555M limits assumed): as the sequence (P22607 397-806 V555L limits assumed) above, with L159M counted along it
In short: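 Cytoplasmic-domain FGFR3 V555M (0.04 ng/μL) with 30 μM ATP and 1 μM FL-peptide 30 in HEPES pH 7.4/MgCl2/Brij35/DTT, 1% DMSO, 45 min at 30 °C, EDTA-stopped. Mobility-shift read of substrate-product conversion; 10-point 4× dilution from 10 μM fitted for IC50/pIC50.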

[5] = biological target: T4, human FGFR3 wild type enzyme (cytoplasmic domain) (Homo sapiens, UniProt P22607); test: FGFR3 wild type mobility shift assay (enzymatic assay); type: biochemical; details: 75 μM ATP, 50 minutes at 30° C., Caliper EZ reader II
T4 construct: human FGFR3 wild type enzyme (cytoplasmic domain, from Carna Biosciences); purchased Carna Biosciences
T4 sequence (P22607 397-806 limits assumed): as the sequence (P22607 397-806 V555L limits assumed) above, with L159V counted along it
In short: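 Cytoplasmic domain of human wild-type FGFR3 (0.04 ng/μL) with 75 μM ATP and 1 μM FL-peptide 30, pH 7.4 HEPES/MgCl2 buffer, 1% DMSO, 50 min at 30 °C, EDTA-stopped. Substrate-product conversion read by mobility shift. IC50, pIC50 and Hill slope from 10-point 4-fold dilutions starting at 10 μM.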

[6] = biological target: T5, NIH/3T3 cells overexpressing FGFR3 WT-TACC3 fusion protein (Homo sapiens, UniProt P22607); test: NIH/3T3 FGFR3 WT-TACC3 cell proliferation assay; type: cell-based; details: 72-hr incubation, CellTiter Glo, starting with 10 μM; read-out: NIH/3T3 FGFR3 WT-TACC3 CTG (IC50)
T5 construct: NIH/3T3 FGFR3 WT-TACC3 CTG (IC50); other: 72-hr incubation, CellTiter Glo, starting with 10 μM; fused on or other part: Q9Y6A5 (Transforming acidic coiled-coil-containing protein 3)
T5 sequence (P22607 whole entry, change not shown, the tested form may be a part): as the sequence (P22607 whole entry V555M, the tested form may be a part) above, with M555V counted along it
In short: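 Cells seeded overnight, then exposed 72 h at 37 °C to compound in 9-point 4-fold dilutions from 10 μM (0.1% DMSO final). Viability read by CellTiter-Glo luminescence, normalized to survival %; IC50, pIC50 and Hill slope from concentration-response fit.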

GI50 [2] [nM] | IC50 [3] [nM] | IC50 [4] [nM] | IC50 [5] [nM] | GI50 [6] [nM] | Compound | IC50 ([1]; Mus musculus, NIH3T3, 72 h) [nM] | IC50 [1] [nM]
34.3 | 1.25 | 0.538 | 1.76 | – | C[C@H](Nc1c(-c2nc3ccc(N4CCOCC4)cc3[nH]2)c(=O)[nH]c2ccccc12)c1ccccn1 [Compound 55, (S)-3-(6-Morpholino-1H-benzo[d]imidazol-2-yl)-4-((1-(pyridin-2-yl)ethyl)amino)-quinolin-2(1H)-one] | 460 | –
– | 0.504 | 0.263 | 0.369 | – | C[C@H](Nc1c(-c2nc3ccc(OC4CCN(C)CC4)cc3[nH]2)c(=O)[nH]c2ccccc12)c1ccccn1 [Compound 64, (S)-3-(6-((1-Methylpiperidin-4-yl)oxy)-1H-benzo[d]imidazol-2-yl)-4-((1-(pyridin-2-yl)-ethyl)amino)quinolin-2(1H)-one] | – | –
66.5 | – | 0.358 | 0.367 | 46.1 | C[C@H](Nc1c(-c2nc3cc(C(F)(F)F)c(N(C)C4CCN(C)CC4)cc3[nH]2)c(=O)[nH]c2ccccc12)c1ccccn1 [Compound 19, (S)-3-(6-(methyl(1-methylpiperidin-4-yl)amino)-5-(trifluoromethyl)-1H-benzo[d]-imidazol-2-yl)-4-((1-(pyridin-2-yl)ethyl)amino)quinolin-2(1H)-one] | 2450 | –
61.7 | – | 0.359 | 0.788 | 31.9 | COC(=O)C1CN(c2ccc3nc(-c4c(N[C@@H](C)c5ccccn5)c5ccccc5[nH]c4=O)[nH]c3c2)CCO1 (mixture of isomers) [Compound 59, (Rac)-methyl 4-(2-(2-oxo-4-(((S)-1-(pyridin-2-yl)ethyl)amino)-1,2-dihydroquinolin-3-yl)-1H-benzo[d]imidazol-6-yl)morpholine-2-carboxylate] | 7290 | –
6.69 | – | 0.208 | 0.858 | 23.1 | CC(Nc1c(-c2nc3ccc(N4CCOCC4)cc3[nH]2)c(=O)[nH]c2ccccc12)c1cscn1 (single isomer, unassigned) [Compound 52a, (S*)-3-(6-morpholino-1H-benzo[d]imidazol-2-yl)-4-((1-(thiazol-4-yl)ethyl)amino)-quinolin-2(1H)-one] | 1430 | –
4.34 | – | 0.449 | 1.05 | 3.46 | CC(Nc1c(-c2nc3ccc(N4CCN(C)CC4)c(F)c3[nH]2)c(=O)[nH]c2ccccc12)c1ccccn1 (single isomer, unassigned) [Compound 13b, (S*)-3-(7-fluoro-6-(4-methylpiperazin-1-yl)-1H-benzo[d]imidazol-2-yl)-4-((1-(pyridin-2-yl)ethyl)amino)quinolin-2(1H)-one] | 1740 | –
274 | – | 2.66 | 16.6 | 253 | C[C@H](Nc1c(-c2nc3ccc(N4CCOCC4)cc3[nH]2)c(=O)[nH]c2c(F)cccc12)c1ccccn1 [Compound 16, (S)-8-fluoro-3-(6-morpholino-1H-benzo[d]imidazol-2-yl)-4-((1-(pyridin-2-yl)ethyl)-amino)quinolin-2(1H)-one] | 2600 | –
111 | – | 1.13 | 2.15 | 113 | COC(=O)C1CN(c2ccc3nc(-c4c(N[C@@H](C)c5ccccn5)c5ccccc5[nH]c4=O)[nH]c3c2)CCO1 (single isomer, unassigned) [Compound 61, (S*)-methyl 4-(2-(2-oxo-4-(((S)-1-(pyridin-2-yl)ethyl)amino)-1,2-dihydroquinolin-3-yl)-1H-benzo[d]imidazol-6-yl)morpholine-2-carboxylate] | – | 1840
13.4 | – | 0.245 | 0.591 | 8.34 | CC(Nc1c(-c2nc3ccc(N4CCOCC4)c(F)c3[nH]2)c(=O)[nH]c2ccccc12)c1ncccn1 (single isomer, unassigned) [Compound 23a, (S*)-3-(7-fluoro-6-morpholino-1H-benzo[d]imidazol-2-yl)-4-((1-(pyrimidin-2-yl)-ethyl)amino)quinolin-2(1H)-one] | 15300 | –
15.9 | – | 0.742 | 1.17 | 19.9 | Cc1cc(N2CCOCC2)cc2[nH]c(-c3c(N[C@@H](C)c4ncccn4)c4ccccc4[nH]c3=O)nc12 [Compound 46, (S)-3-(4-methyl-6-morpholino-1H-benzo[d]imidazol-2-yl)-4-((1-(pyrimidin-2-yl)ethyl)-amino)quinolin-2(1H)-one] | 3910 | –
5.8 | – | 0.255 | 0.445 | 6.93 | CC(Nc1c(-c2nc3cc(F)c(N4CCOCC4)cc3[nH]2)c(=O)[nH]c2ccccc12)c1ncccn1 (single isomer, unassigned) [Compound 27a, (S*)-3-(5-fluoro-6-morpholino-1H-benzo[d]imidazol-2-yl)-4-((1-(pyrimidin-2-yl)-ethyl)amino)quinolin-2(1H)-one] | 3880 | –
197 | – | 2.86 | 11.1 | 127 | CC(Nc1c(-c2nc3ccc(N4CCOCC4)cc3[nH]2)c(=O)[nH]c2ccccc12)c1cnccn1 (single isomer, unassigned) [Compound 35b, (S*)-3-(6-morpholino-1H-benzo[d]imidazol-2-yl)-4-((1-(pyrazin-2-yl)ethyl)amino)-quinolin-2(1H)-one] | 1680 | –
28.9 | – | 0.382 | 0.545 | 4.19 | CC(Nc1c(-c2nc3cc(C(F)(F)F)c(N4CCC(C(=O)O)CC4)cc3[nH]2)c(=O)[nH]c2ccccc12)c1ncccn1 (single isomer, unassigned) [Compound 58, (S*)-1-(2-(2-oxo-4-((1-(pyrimidin-2-yl)ethyl)amino)-1,2-dihydroquinolin-3-yl)-5-(trifluoromethyl)-1H-benzo[d]imidazol-6-yl)piperidine-4-carboxylic acid] | 8240 | –
10.8 | – | 0.15 | 0.242 | 8.46 | CC(Nc1c(-c2nc3ccc(C4CCOCC4)cc3[nH]2)c(=O)[nH]c2ccccc12)c1ncccn1 (single isomer, unassigned) [Compound 29a, (S*)-4-((1-(pyrimidin-2-yl)ethyl)amino)-3-(6-(tetrahydro-2H-pyran-4-yl)-1H-benzo[d]-imidazol-2-yl)quinolin-2(1H)-one] | 4690 | –
